Results published in patent US8815260B1, “Treatment of restenosis and stenosis with dasatinib” (University of South Florida, priority 2005, dated 2014).
Where two headings read alike, the source gives them in different places.

Experiments:
[1] = system: porcine SMC; details: Banai et al., 1998; cited from earlier work
[2] = target: PDGFRβ (Rattus norvegicus, UniProt Q05030); details: A10 cells
[3] = system: PDGFR; details: Buchdunger et al., 1996; Sanz-Gonzalez et al., 2004; cited from earlier work
[4] = system: STAT3, Akt, Erk2; test: PDGF-stimulated activation of STAT3, Akt and Erk2 in A10 cells (immunoblotting); format: cell-based, rat
[5] = target: IGF-1R (Rattus norvegicus, UniProt P24062); details: A10 cells, up to 50 nM, IGF-1 10 ng/ml 10 min
[6] = cited from earlier work
[7] = system: STAT3, Akt, Erk2; test: PDGF-stimulated activation of STAT3, Akt and Erk2 in primary human AoSMCs; format: cell-based; details: 0-50 nM, not reduced below basal activation state
[8] = system: A10 cells; test: Flow cytometric analysis of cell cycle phase distribution, PDGF-treated A10 cells; format: cell-based, rat; details: PDGF 10 ng/ml plus 50 nM

PDGFRβ, sequence (Q05030 32-1097): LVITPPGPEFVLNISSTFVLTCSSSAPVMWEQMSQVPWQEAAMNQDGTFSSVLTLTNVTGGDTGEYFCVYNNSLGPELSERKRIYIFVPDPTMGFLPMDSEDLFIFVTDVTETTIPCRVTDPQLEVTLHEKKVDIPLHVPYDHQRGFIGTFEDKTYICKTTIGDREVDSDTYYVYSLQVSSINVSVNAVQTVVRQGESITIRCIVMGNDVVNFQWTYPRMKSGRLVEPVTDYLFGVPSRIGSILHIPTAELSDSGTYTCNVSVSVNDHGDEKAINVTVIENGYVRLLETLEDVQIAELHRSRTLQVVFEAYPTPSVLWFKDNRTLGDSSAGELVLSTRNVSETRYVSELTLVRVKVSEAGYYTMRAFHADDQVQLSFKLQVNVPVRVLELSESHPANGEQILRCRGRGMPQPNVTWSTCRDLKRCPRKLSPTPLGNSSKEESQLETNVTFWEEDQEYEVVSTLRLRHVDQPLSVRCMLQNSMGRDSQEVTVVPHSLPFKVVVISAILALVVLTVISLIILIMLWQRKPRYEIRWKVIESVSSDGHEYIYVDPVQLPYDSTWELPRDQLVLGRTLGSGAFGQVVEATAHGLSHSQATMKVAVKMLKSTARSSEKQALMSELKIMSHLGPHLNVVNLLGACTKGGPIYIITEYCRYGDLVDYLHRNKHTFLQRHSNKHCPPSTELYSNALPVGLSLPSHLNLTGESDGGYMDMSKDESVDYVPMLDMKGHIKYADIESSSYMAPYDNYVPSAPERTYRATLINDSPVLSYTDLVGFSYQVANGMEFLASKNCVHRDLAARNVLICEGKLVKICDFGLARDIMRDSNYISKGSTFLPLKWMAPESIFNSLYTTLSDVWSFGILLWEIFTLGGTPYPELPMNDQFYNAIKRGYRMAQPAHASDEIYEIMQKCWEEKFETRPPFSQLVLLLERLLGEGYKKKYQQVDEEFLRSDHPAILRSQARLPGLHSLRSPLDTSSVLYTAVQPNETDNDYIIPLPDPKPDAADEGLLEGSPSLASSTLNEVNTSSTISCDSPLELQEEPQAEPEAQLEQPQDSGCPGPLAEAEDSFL
IGF-1R, sequence (P24062 31-1370): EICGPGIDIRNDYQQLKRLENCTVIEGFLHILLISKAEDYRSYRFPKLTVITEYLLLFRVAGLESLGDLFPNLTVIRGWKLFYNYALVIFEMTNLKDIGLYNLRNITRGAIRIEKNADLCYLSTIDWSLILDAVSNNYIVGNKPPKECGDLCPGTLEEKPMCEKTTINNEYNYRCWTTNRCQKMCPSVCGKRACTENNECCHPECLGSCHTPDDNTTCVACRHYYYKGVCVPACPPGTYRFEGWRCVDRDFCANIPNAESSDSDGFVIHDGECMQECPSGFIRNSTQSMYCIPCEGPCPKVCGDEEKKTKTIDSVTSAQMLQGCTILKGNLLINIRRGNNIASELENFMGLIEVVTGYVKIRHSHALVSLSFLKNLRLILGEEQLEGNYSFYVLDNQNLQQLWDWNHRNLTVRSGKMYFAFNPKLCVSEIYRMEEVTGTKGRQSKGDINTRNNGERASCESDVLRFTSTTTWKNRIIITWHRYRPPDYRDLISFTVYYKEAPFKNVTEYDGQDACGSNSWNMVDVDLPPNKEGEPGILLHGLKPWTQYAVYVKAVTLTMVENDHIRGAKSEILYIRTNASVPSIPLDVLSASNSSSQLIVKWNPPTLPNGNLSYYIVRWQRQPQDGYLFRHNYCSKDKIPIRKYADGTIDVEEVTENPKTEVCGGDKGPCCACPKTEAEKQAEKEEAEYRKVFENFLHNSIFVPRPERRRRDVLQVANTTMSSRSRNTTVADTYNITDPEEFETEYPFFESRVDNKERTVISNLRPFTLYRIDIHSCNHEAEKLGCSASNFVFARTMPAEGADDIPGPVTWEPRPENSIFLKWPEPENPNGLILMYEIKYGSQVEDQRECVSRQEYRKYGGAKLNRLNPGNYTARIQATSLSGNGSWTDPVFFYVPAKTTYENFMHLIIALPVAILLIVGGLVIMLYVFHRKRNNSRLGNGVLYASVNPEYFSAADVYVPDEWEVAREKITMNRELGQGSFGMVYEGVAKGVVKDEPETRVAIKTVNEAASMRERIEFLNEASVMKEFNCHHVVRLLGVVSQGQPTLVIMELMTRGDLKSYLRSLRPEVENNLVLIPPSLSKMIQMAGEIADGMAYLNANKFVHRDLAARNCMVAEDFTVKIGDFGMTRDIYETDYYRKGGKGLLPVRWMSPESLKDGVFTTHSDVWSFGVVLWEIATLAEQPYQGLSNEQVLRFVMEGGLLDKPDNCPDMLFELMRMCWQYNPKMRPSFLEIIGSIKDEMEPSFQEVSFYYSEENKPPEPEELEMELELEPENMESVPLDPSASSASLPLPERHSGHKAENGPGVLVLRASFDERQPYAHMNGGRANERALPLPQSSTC

Which “inhibition of porcine SMC proliferation, nature of the effect” value [1] does the source give for Cc1cc2ncc(-c3ccccc3)nc2cc1C [AG-1295] here?
The value was “reversible and not toxic”.

Which “concentration required for the same level (complete block) of PDGFR inhibition” value ([2]; parallel experiments, PDGF-BB 5 ng/ml 5 min) does the source give for Cc1ccc(NC(=O)c2ccc(CN3CCN(C)CC3)cc2)cc1Nc1nccc(-c2cccnc2)n1 [imatinib] here?
The value was 5 µM.

And the “concentrations required for inhibition of PDGFR in cell-based assays” value [3]?
Its value is “micromolar concentrations”.

And the “concentration giving complete inhibition of PDGF-stimulated Akt and Erk2 activation” value ([4]; PDGF-BB 5 ng/ml 5 min)?
The value was 5 µM.

What about the “decrease in STAT3 tyrosine phosphorylation” value ([4]; PDGF-BB 5 ng/ml 5 min, relative to the 5 μM needed for Akt and Erk2) of the same compound?
Its value is “appeared at lower concentrations”.

Which “PDGF-stimulated PDGFRβ tyrosine phosphorylation” value ([2]; 50 nM, PDGF-BB 5 ng/ml, all time points (0-30 min)) does the source give for Cc1nc(Nc2ncc(C(=O)Nc3c(C)cccc3Cl)s2)cc(N2CCN(CCO)CC2)n1 [BMS-354825, N-(2-chloro-6-methylphenyl)-2-[[6-[4-[(2-hydroxyethyl)-1-piperazinyl]-2-methyl-4-pyrimidinyl]amino]-5-thiazolecarboxamide, monohydrate] here?
Its value is “effectively blocked”.

What about the “inhibition of IGF-1R tyrosine phosphorylation” value [5] of the same compound?
Its value is “No detectable inhibition”.

And the Cmax ([6]; BMS-354825 dosing for CML, oral, read-out: Cmax)?
Its Cmax is 60 to 120 nM.

What about the Cmax ([6]; oral delivery route, 140 mg/day) of the same compound?
Its Cmax is 30 to 60 ng/mL.

And the “PDGF-induced further activation of STAT3” value [7]?
Its value is “blocked”.

And the “PDGF-stimulated activation of STAT3, Akt and Erk2 (activation-specific phosphorylation)” value ([4]; 50 nM, PDGF-BB 5 ng/ml)?
Its value is “inhibited”.

What about the “percentage of cells in G2 phase” value ([8]; 16 h (PDGF alone 10.74%, no PDGF 0.99%)) of the same compound?
Its value is 3.75%.

And the “percentage of cells in S phase” value ([8]; 16 h (PDGF alone 23.83%, no PDGF 10.4%))?
The value was 7.99%.

What about the “percentage of cells in G1 phase” value ([8]; 16 h (PDGF alone 65.44%, no PDGF 88.65%)) of the same compound?
The value was 88.29%.
